Where “and” joins values, the source holds several entries; their conditions need not be identical. Identical values can stand only once. Toxic doses and inconclusive results are not listed. No stated cut-off is given here; in the data, active means T/C of 150% or more; inactive means T/C below 125%.
Tested on: L1210 leukemia ip in BDF1 mice, survival T/C
Test: NCI In Vivo Anticancer Drug Screen. Data for tumor model L1210 Leukemia (intraperitoneal) in B6D2F1 (BDF1) mice
Conditions: endpoint: mean survival time, higher = longer survival
Summary of the method: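 Antitumor effect is assessed in tumor-bearing animals. Survival in the compound arm is compared with a vehicle-dosed control arm and expressed as their quotient.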

[1] = dose: 100.0 mg/kg/injection, schedule: Q01DX009 (ip), vehicle: Klucel (hydroxypropylcellulose) (HPC)
[2] = dose: 100.0 mg/kg/injection, schedule: Q04DX003 (ip), vehicle: Klucel (hydroxypropylcellulose) (HPC)
[3] = dose: 200.0 mg/kg/injection, schedule: Q01DX009 (ip), vehicle: Klucel (hydroxypropylcellulose) (HPC)
[4] = dose: 200.0 mg/kg/injection, schedule: Q04DX003 (ip), vehicle: Klucel (hydroxypropylcellulose) (HPC)
[5] = dose: 400.0 mg/kg/injection, schedule: Q01DX009 (ip), vehicle: Klucel (hydroxypropylcellulose) (HPC)
[6] = dose: 400.0 mg/kg/injection, schedule: Q04DX003 (ip), vehicle: Klucel (hydroxypropylcellulose) (HPC)
[7] = dose: 100.0 mg/kg/injection, schedule: Q01DX001 (ip), vehicle: saline
[8] = dose: 200.0 mg/kg/injection, schedule: Q01DX001 (ip), vehicle: saline
[9] = dose: 400.0 mg/kg/injection, schedule: Q01DX001 (ip), vehicle: saline
[10] = dose: 100.0 mg/kg/injection, schedule: Q01DX001 (ip), vehicle: carboxymethylcellulose (CMC)
[11] = dose: 200.0 mg/kg/injection, schedule: Q01DX001 (ip), vehicle: carboxymethylcellulose (CMC)
[12] = dose: 400.0 mg/kg/injection, schedule: Q01DX001 (ip), vehicle: carboxymethylcellulose (CMC)
[13] = dose: 50.0 mg/kg/injection, schedule: Q01DX001 (ip), vehicle: carboxymethylcellulose (CMC)
[14] = dose: 100.0 mg/kg/injection, schedule: Q01DX009 (ip), vehicle: saline
[15] = dose: 200.0 mg/kg/injection, schedule: Q01DX009 (ip), vehicle: saline

Measured: T/C

CC(C)(C)NCC1CCCC1=O (stereo unspecified)
inactive: dose: 100.0 mg/kg/injection, schedule: Q04DX002 (ip), vehicle: gum acacia 101 % of control | dose: 200.0 mg/kg/injection, schedule: Q04DX002 (ip), vehicle: gum acacia 105 % of control

CCCCCCCC(=O)N(CCO)CCO
inactive: dose: 100.0 mg/kg/injection, schedule: Q04DX002 (ip), vehicle: other 96 % of control | dose: 200.0 mg/kg/injection, schedule: Q04DX002 (ip), vehicle: other 101 % of control | dose: 400.0 mg/kg/injection, schedule: Q04DX002 (ip), vehicle: other 96 % of control

CC(C)(C)C(=O)CC(=O)C(C)(C)C.CC(C)(C)C(=O)CC(=O)C(C)(C)C.CC(C)(C)C(=O)CC(=O)C(C)(C)C.CC(C)(C)C(=O)CC(=O)C(C)(C)C.[Ce]
inactive: [1] 100 % of control | [2] 103 % of control | [3] 96 % of control | [4] 94 % of control | [5] 107 % of control | [6] 106 % of control

c1ccc2c(c1)[nH]c1cc3ccncc3cc12
inactive: dose: 50.0 mg/kg/injection, schedule: Q01DX001 (ip), vehicle: saline 100 % of control | dose: 100.0 mg/kg/injection, schedule: Q01DX001 (ip), vehicle: Klucel (hydroxypropylcellulose) (HPC) 94 % of control | [7] 94 % of control | [2] 93 % of control | dose: 200.0 mg/kg/injection, schedule: Q01DX001 (ip), vehicle: Klucel (hydroxypropylcellulose) (HPC) 96 % of control | [8] 98 % of control | [4] 93 % of control | dose: 400.0 mg/kg/injection, schedule: Q01DX001 (ip), vehicle: Klucel (hydroxypropylcellulose) (HPC) 92 % of control | [9] 96 % of control | [6] 91 % of control

COC1OCCCC1Br (stereo unspecified)
inactive: [7] 91 % of control | [8] 102 % of control | [9] 107 % of control

O=C(O)c1cc([N+](=O)[O-])cc([N+](=O)[O-])c1 (tested in a mixture with another compound)
inactive: dose: 3.13 mg/kg/injection, schedule: Q04DX002 (ip), vehicle: saline with Tween-80 100 % of control | dose: 6.25 mg/kg/injection, schedule: Q04DX002 (ip), vehicle: saline with Tween-80 106 % of control | dose: 25.0 mg/kg/injection, schedule: Q04DX002 (ip), vehicle: saline with Tween-80 96 % of control and 100 % of control | dose: 50.0 mg/kg/injection, schedule: Q04DX002 (ip), vehicle: saline with Tween-80 114 % of control

O=C1c2ccccc2-c2ncccc21
inactive: [1] 103 % of control | [2] 98 % of control | [3] 102 % of control | [4] 109 % of control | [5] 92 % of control

O=[N+]([O-])c1ccc(OP(=O)(Oc2ccc([N+](=O)[O-])cc2)Oc2ccc([N+](=O)[O-])cc2)cc1
inactive: dose: 100.0 mg/kg/injection, schedule: Q04DX003 (ip), vehicle: gum acacia 97 % of control and 107 % of control | dose: 200.0 mg/kg/injection, schedule: Q04DX003 (ip), vehicle: gum acacia 92 % of control and 103 % of control | dose: 400.0 mg/kg/injection, schedule: Q04DX003 (ip), vehicle: gum acacia 94 % of control and 95 % of control

CC1CC[N-]CC1.CC1CC[N-]CC1.CC1CC[N-]CC1.CC1CC[N-]CC1.[Pt+4]
inactive: dose: 0.39 mg/kg/injection, schedule: Q01DX009 (ip), vehicle: saline 100 % of control | dose: 0.39 mg/kg/injection, schedule: Q04DX003 (ip), vehicle: saline 97 % of control | dose: 0.78 mg/kg/injection, schedule: Q01DX009 (ip), vehicle: saline 92 % of control | dose: 0.78 mg/kg/injection, schedule: Q04DX003 (ip), vehicle: saline 100 % of control | dose: 1.56 mg/kg/injection, schedule: Q01DX009 (ip), vehicle: saline 94 % of control | dose: 1.56 mg/kg/injection, schedule: Q04DX003 (ip), vehicle: saline 102 % of control | dose: 3.12 mg/kg/injection, schedule: Q04DX003 (ip), vehicle: saline 96 % of control

O=C1Nc2cccc3cc(NCC(O)CCCl)cc1c23 (stereo unspecified)
inactive: [7] 90 % of control | [8] 89 % of control | [9] 100 % of control

O=C(c1ccncc1)n1cc2c(n1)CCCC2
inactive: [2] 87 % of control | [4] 92 % of control | [6] 95 % of control

COc1ccc(C(C)=O)cc1CCC=O
inactive: [10] 97 % of control | [11] 97 % of control | [12] 97 % of control

CCN(CC)CCCC(C)Nc1ccccn1 (stereo unspecified)
inactive: dose: 75.0 mg/kg/injection, schedule: Q01DX001 (ip), vehicle: carboxymethylcellulose (CMC) 102 % of control | dose: 150.0 mg/kg/injection, schedule: Q01DX001 (ip), vehicle: carboxymethylcellulose (CMC) 100 % of control

O=S(=O)(Cc1nc2ccccc2[nH]1)Cc1nc2ccccc2[nH]1
inactive: [13] 97 % of control | [10] 92 % of control | [11] 100 % of control | [12] 92 % of control

CS(=N)(=O)CC(N)C(=O)O (stereo unspecified)
inactive: [14] 95 % of control | [15] 114 % of control | dose: 400.0 mg/kg/injection, schedule: Q01DX009 (ip), vehicle: saline 95 % of control

CC(N)CN(C)C (stereo unspecified)
inactive: [14] 98 % of control | dose: 100.0 mg/kg/injection, schedule: Q04DX003 (ip), vehicle: saline 99 % of control | [15] 106 % of control | dose: 200.0 mg/kg/injection, schedule: Q04DX003 (ip), vehicle: saline 100 % of control | dose: 400.0 mg/kg/injection, schedule: Q04DX003 (ip), vehicle: saline 96 % of control

Nc1nc(N)c2nc(CNc3ccc(S(=O)(=O)NC(CCC(=O)O)C(=O)O)cc3)cnc2n1 (stereo unspecified)
inactive: dose: 20.0 mg/kg/injection, schedule: Q01DX009 (ip), vehicle: Klucel (hydroxypropylcellulose) (HPC) 114 % of control | dose: 40.0 mg/kg/injection, schedule: Q01DX009 (ip), vehicle: Klucel (hydroxypropylcellulose) (HPC) 119 % of control | dose: 80.0 mg/kg/injection, schedule: Q01DX009 (ip), vehicle: Klucel (hydroxypropylcellulose) (HPC) 124 % of control | [3] 120 % of control

Cc1ccc(C)c(NC(=O)Nc2ccccc2F)c1
inactive: dose: 100.0 mg/kg/injection, schedule: Q01DX009 (ip), vehicle: carboxymethylcellulose (CMC) 89 % of control | dose: 200.0 mg/kg/injection, schedule: Q01DX009 (ip), vehicle: carboxymethylcellulose (CMC) 86 % of control | dose: 400.0 mg/kg/injection, schedule: Q01DX009 (ip), vehicle: carboxymethylcellulose (CMC) 87 % of control

Cc1ccc(NC(=O)NCCBr)cc1
inactive: [13] 101 % of control | [10] 101 % of control | [11] 106 % of control | [12] 98 % of control

CC(=O)[O][Pb]([O]C(C)=O)([c]1ccccc1)[c]1ccccc1
inactive: dose: 100.0 mg/kg/injection, schedule: Q04DX002 (ip), vehicle: Klucel (hydroxypropylcellulose) (HPC) 98 % of control | dose: 100.0 mg/kg/injection, schedule: Q04DX002 (ip), vehicle: saline with Tween-80 102 % of control | dose: 200.0 mg/kg/injection, schedule: Q04DX002 (ip), vehicle: Klucel (hydroxypropylcellulose) (HPC) 102 % of control | dose: 200.0 mg/kg/injection, schedule: Q04DX002 (ip), vehicle: saline with Tween-80 102 % of control | dose: 400.0 mg/kg/injection, schedule: Q04DX002 (ip), vehicle: Klucel (hydroxypropylcellulose) (HPC) 105 % of control

N#Cc1c(O)c(Cl)c(Cl)c(O)c1C#N
inactive: [2] 109 % of control | [4] 96 % of control | [6] 96 % of control

C#CCOCC(O)CCl (stereo unspecified)
inactive: dose: 75.0 mg/kg/injection, schedule: Q01DX001 (ip), vehicle: acetone 101 % of control | dose: 150.0 mg/kg/injection, schedule: Q01DX001 (ip), vehicle: acetone 92 % of control | dose: 300.0 mg/kg/injection, schedule: Q01DX001 (ip), vehicle: acetone 89 % of control

Cc1ccc(NS(=O)(=O)c2ccc([N+](=O)[O-])cc2)cc1
inactive: dose: 100.0 mg/kg/injection, schedule: Q04DX003 (ip), vehicle: saline with Tween-80 103 % of control | dose: 200.0 mg/kg/injection, schedule: Q04DX003 (ip), vehicle: saline with Tween-80 89 % of control | dose: 400.0 mg/kg/injection, schedule: Q04DX003 (ip), vehicle: saline with Tween-80 89 % of control
